Where “and” joins values, the source holds several entries; their conditions need not be identical. Equal values may be shown once. Toxic doses and inconclusive results are not listed. Rule for the calls: active = survival T/C of 150% or more; inactive = T/C below 125% in these data.
Test system: CD2F1 mice, L1210 leukemia ip, survival T/C
Experiment: NCI In Vivo Anticancer Drug Screen. Data for tumor model L1210 Leukemia (intraperitoneal) in CD2F1 (CDF1) mice
Settings: higher = longer survival
Procedure, shortened: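 Implant tumor; dose compound or vehicle; measure endpoint in both groups; report treated divided by control.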

[1] = endpoint: mean survival time, dose: 100.0 mg/kg/injection, schedule: Q04DX003 (ip), vehicle: saline with Tween-80
[2] = endpoint: mean survival time, dose: 12.5 mg/kg/injection, schedule: Q01DX009 (ip), vehicle: saline with Tween-80
[3] = endpoint: mean survival time, dose: 25.0 mg/kg/injection, schedule: Q01DX009 (ip), vehicle: saline with Tween-80
[4] = endpoint: mean survival time, dose: 50.0 mg/kg/injection, schedule: Q01DX009 (ip), vehicle: saline with Tween-80
[5] = endpoint: mean survival time, dose: 200.0 mg/kg/injection, schedule: Q04DX003 (ip), vehicle: saline with Tween-80
[6] = endpoint: mean survival time, dose: 400.0 mg/kg/injection, schedule: Q04DX003 (ip), vehicle: saline with Tween-80
[7] = endpoint: mean survival time, dose: 100.0 mg/kg/injection, schedule: Q04DX002 (ip), vehicle: saline with Tween-80
[8] = endpoint: mean survival time, dose: 200.0 mg/kg/injection, schedule: Q04DX002 (ip), vehicle: saline with Tween-80
[9] = endpoint: mean survival time, dose: 50.0 mg/kg/injection, schedule: Q04DX002 (ip), vehicle: saline with Tween-80
[10] = endpoint: mean survival time, dose: 100.0 mg/kg/injection, schedule: Q01DX001 (ip), vehicle: saline with Tween-80
[11] = endpoint: mean survival time, dose: 200.0 mg/kg/injection, schedule: Q01DX001 (ip), vehicle: saline with Tween-80

Measured: T/C

Nc1c(Cl)cc(Cl)cc1C(=O)O
inactive: endpoint: mean survival time, dose: 100.0 mg/kg/injection, schedule: Q01DX001 (ip), vehicle: saline 102 % of control | endpoint: mean survival time, dose: 200.0 mg/kg/injection, schedule: Q01DX001 (ip), vehicle: saline 100 % of control | endpoint: mean survival time, dose: 400.0 mg/kg/injection, schedule: Q01DX001 (ip), vehicle: saline 104 % of control

OC(c1ccccc1)C1CCN(Cc2ccccc2)CC1 (stereo not drawn)
inactive: [1] 96 % of control

O=C(Nc1cccc2c(OC(=O)C(Cl)Cl)c(N=Nc3ccc(S(=O)(=O)Nc4nccs4)cc3)cc(N=Nc3ccc(S(=O)(=O)Nc4nccs4)cc3)c12)C(Cl)Cl (tested in a mixture with another compound)
inactive: endpoint: mean survival time, dose: 3.12 mg/kg/injection, schedule: Q01DX009 (ip), vehicle: saline with Tween-80 96 % of control and 101 % of control | endpoint: mean survival time, dose: 6.25 mg/kg/injection, schedule: Q01DX009 (ip), vehicle: saline with Tween-80 95 % of control and 101 % of control | [2] 96 % of control and 102 % of control | [3] 101 % of control and 106 % of control | [4] 101 % of control and 110 % of control | endpoint: mean survival time, dose: 100.0 mg/kg/injection, schedule: Q01DX009 (ip), vehicle: saline with Tween-80 113 % of control and 112 % of control | endpoint: median survival time, dose: 100.0 mg/kg/injection, schedule: Q01DX009 (ip), vehicle: saline with Tween-80 113 % of control | endpoint: median survival time, dose: 200.0 mg/kg/injection, schedule: Q01DX009 (ip), vehicle: saline with Tween-80 106 % of control | endpoint: median survival time, dose: 400.0 mg/kg/injection, schedule: Q01DX009 (ip), vehicle: saline with Tween-80 100 % of control

N#Cc1c(F)c(F)c(Oc2c(F)c(F)c(F)c(F)c2F)c(F)c1Oc1c(F)c(F)c(F)c(F)c1F
inactive: [1] 96 % of control | [5] 93 % of control | [6] 88 % of control

O=C(C=P(c1ccccc1)(c1ccccc1)c1ccccc1)c1ccccc1
inactive: [1] 97 % of control | [5] 101 % of control | [6] 89 % of control

C/C=C/c1cnc(N)nc1-c1ccccc1
inactive: [7] 101 % of control | [8] 96 % of control | endpoint: mean survival time, dose: 400.0 mg/kg/injection, schedule: Q04DX002 (ip), vehicle: saline with Tween-80 96 % of control

Cc1cccc(=O)n1Cc1ccccc1
inactive: [1] 95 % of control | [5] 95 % of control | [6] 95 % of control

CC(C)(C)C1CCCCC1
inactive: endpoint: mean survival time, dose: 12.5 mg/kg/injection, schedule: Q01DX009 (ip), vehicle: Klucel (hydroxypropylcellulose) (HPC) 90 % of control and 101 % of control | endpoint: mean survival time, dose: 25.0 mg/kg/injection, schedule: Q01DX009 (ip), vehicle: Klucel (hydroxypropylcellulose) (HPC) 90 % of control and 98 % of control | endpoint: mean survival time, dose: 50.0 mg/kg/injection, schedule: Q01DX009 (ip), vehicle: Klucel (hydroxypropylcellulose) (HPC) 93 % of control and 101 % of control | endpoint: mean survival time, dose: 100.0 mg/kg/injection, schedule: Q01DX009 (ip), vehicle: Klucel (hydroxypropylcellulose) (HPC) 88 % of control and 98 % of control | endpoint: mean survival time, dose: 200.0 mg/kg/injection, schedule: Q01DX009 (ip), vehicle: Klucel (hydroxypropylcellulose) (HPC) 91 % of control and 98 % of control | endpoint: mean survival time, dose: 400.0 mg/kg/injection, schedule: Q01DX009 (ip), vehicle: Klucel (hydroxypropylcellulose) (HPC) 93 % of control

C/C=C\c1ccc(OCCOC(=O)Nc2ccc(C)c([N+](=O)[O-])c2)c(OC)c1
inactive: [2] 98 % of control | [3] 92 % of control | [4] 88 % of control and 92 % of control | endpoint: mean survival time, dose: 200.0 mg/kg/injection, schedule: Q01DX009 (ip), vehicle: saline with Tween-80 88 % of control

Cn1cccnc1=O
inactive: endpoint: mean survival time, dose: 100.0 mg/kg/injection, schedule: Q04DX002 (ip), vehicle: saline 106 % of control | endpoint: mean survival time, dose: 200.0 mg/kg/injection, schedule: Q04DX002 (ip), vehicle: saline 95 % of control | endpoint: mean survival time, dose: 400.0 mg/kg/injection, schedule: Q04DX002 (ip), vehicle: saline 106 % of control

N#CSCN1C(=O)C2CC=CCC2C1=O (stereo not drawn)
inactive: endpoint: mean survival time, dose: 6.25 mg/kg/injection, schedule: Q04DX003 (ip), vehicle: saline with Tween-80 103 % of control | endpoint: mean survival time, dose: 12.5 mg/kg/injection, schedule: Q04DX003 (ip), vehicle: saline with Tween-80 101 % of control

CCOP(=O)(CC(=O)O)c1ccccc1 (stereo not drawn)
inactive: endpoint: mean survival time, dose: 25.0 mg/kg/injection, schedule: Q04DX002 (ip), vehicle: saline with Tween-80 96 % of control | [9] 100 % of control | [7] 92 % of control

O=C1c2ccccc2C(=O)C1c1cc2ccccc2cn1
inactive: [9] 91 % of control | [10] 87 % of control | [7] 95 % of control | [11] 91 % of control | [8] 91 % of control

Cn1ccccc1=S
inactive: [10] 108 % of control | [11] 107 % of control | endpoint: mean survival time, dose: 400.0 mg/kg/injection, schedule: Q01DX001 (ip), vehicle: saline with Tween-80 103 % of control

CNC(=S)Nc1ncn[nH]1
inactive: endpoint: mean survival time, dose: 12.5 mg/kg/injection, schedule: Q01DX001 (ip), vehicle: carboxymethylcellulose (CMC) 95 % of control | endpoint: mean survival time, dose: 25.0 mg/kg/injection, schedule: Q01DX001 (ip), vehicle: carboxymethylcellulose (CMC) 93 % of control | endpoint: mean survival time, dose: 50.0 mg/kg/injection, schedule: Q01DX001 (ip), vehicle: carboxymethylcellulose (CMC) 93 % of control | endpoint: mean survival time, dose: 100.0 mg/kg/injection, schedule: Q01DX001 (ip), vehicle: carboxymethylcellulose (CMC) 91 % of control | endpoint: mean survival time, dose: 200.0 mg/kg/injection, schedule: Q01DX001 (ip), vehicle: carboxymethylcellulose (CMC) 91 % of control

CCCCCCCC[n+]1ccc(C#N)cc1
inactive: endpoint: mean survival time, dose: 18.8 mg/kg/injection, schedule: Q01DX009 (ip), vehicle: saline 98 % of control | endpoint: mean survival time, dose: 37.5 mg/kg/injection, schedule: Q01DX009 (ip), vehicle: saline 93 % of control
